Like-named read-outs stand apart in the source and are kept apart here.
Assays:
ErbB2 kinase = target: T1, ErbB2 kinase (Homo sapiens, UniProt P04626); test: EGFR/ErbB2 enzymatic experiment (HTRF kinEASE-TK), ErbB2; assay type: biochemical; conditions: ErbB2 kinase 0.06 ng/μL, ATP 4 μM; read-out: Kinase IC50 (nM) in vitro ErbB2
T1 construct: The final concentration of ErbB2 kinase was 0.06 ng/μL
Description: (§1) EGFR/ErbB2 Enzymatic Experiment
(§2) Firstly, 1× reaction buffer required for the kinase was prepared, then 5× Enzymatic buffer (HEPES 20 mM pH 7.0, NaN3 0.1%, BSA 0.05%, sodium orthovanadate 0.5 mM) was diluted in HTRF kinEASE-TK kit by 1 time with deionized water, and 50 nM Supplement Enzymatic buffer (SEB REAGENT), 1 mM MnCl2, 5 mM MfCl2, 1 mM DTT were added. Secondly, 5× compound was prepared, and 10 mM test compound storage solution was diluted in multiple steps with DMSO in a 96-well compound plate to prepare 100× compound as an initial concentration, which was then used as the first concentration to carry out a 3-fold gradient dilution with DMSO to obtain a total of 10 concentrations. Then 1 μL of gradient diluent was added to 19 μL of 1× reaction buffer to prepare 5× compound for later use. Then 2 μL of 5× compound was transferred from the 96-well plate into a 384-well plate. To the compound-free control wells was added 2 μL of the following liquid: 19 μL of 1× reaction buffer with addition of 1 μL of DMSO. To the blank control well was added 2 μL of 250 mM EDTA. […] In the fourth step of reaction termination, HTRF Detection buffer was used to prepare a mixture of 2×TK Antibody-EU (K) and Sa-XL665, and the amount of TK Antibody-EU (K) was 5 μL per well. After the enzyme reaction was carried out for 30 minutes, 10 μL of the above liquid was added to a 384-well plate, and the reaction was carried out at room temperature for 1 hour. […] RFU665 nM and RFU620 nM were measured, and RFU665 nM/RFU620 nM×10000 was used as final data for analysis.

EGFR kinase = EGFR kinase (Homo sapiens, UniProt P00533); test: EGFR/ErbB2 enzymatic experiment (HTRF kinEASE-TK), EGFR; assay type: biochemical; conditions: EGFR kinase 0.06 units/μL, ATP 1.65 μM; read-out: Kinase IC50 (nM) in vitro EGFR
Chain of EGFR kinase (P00533 25-1210): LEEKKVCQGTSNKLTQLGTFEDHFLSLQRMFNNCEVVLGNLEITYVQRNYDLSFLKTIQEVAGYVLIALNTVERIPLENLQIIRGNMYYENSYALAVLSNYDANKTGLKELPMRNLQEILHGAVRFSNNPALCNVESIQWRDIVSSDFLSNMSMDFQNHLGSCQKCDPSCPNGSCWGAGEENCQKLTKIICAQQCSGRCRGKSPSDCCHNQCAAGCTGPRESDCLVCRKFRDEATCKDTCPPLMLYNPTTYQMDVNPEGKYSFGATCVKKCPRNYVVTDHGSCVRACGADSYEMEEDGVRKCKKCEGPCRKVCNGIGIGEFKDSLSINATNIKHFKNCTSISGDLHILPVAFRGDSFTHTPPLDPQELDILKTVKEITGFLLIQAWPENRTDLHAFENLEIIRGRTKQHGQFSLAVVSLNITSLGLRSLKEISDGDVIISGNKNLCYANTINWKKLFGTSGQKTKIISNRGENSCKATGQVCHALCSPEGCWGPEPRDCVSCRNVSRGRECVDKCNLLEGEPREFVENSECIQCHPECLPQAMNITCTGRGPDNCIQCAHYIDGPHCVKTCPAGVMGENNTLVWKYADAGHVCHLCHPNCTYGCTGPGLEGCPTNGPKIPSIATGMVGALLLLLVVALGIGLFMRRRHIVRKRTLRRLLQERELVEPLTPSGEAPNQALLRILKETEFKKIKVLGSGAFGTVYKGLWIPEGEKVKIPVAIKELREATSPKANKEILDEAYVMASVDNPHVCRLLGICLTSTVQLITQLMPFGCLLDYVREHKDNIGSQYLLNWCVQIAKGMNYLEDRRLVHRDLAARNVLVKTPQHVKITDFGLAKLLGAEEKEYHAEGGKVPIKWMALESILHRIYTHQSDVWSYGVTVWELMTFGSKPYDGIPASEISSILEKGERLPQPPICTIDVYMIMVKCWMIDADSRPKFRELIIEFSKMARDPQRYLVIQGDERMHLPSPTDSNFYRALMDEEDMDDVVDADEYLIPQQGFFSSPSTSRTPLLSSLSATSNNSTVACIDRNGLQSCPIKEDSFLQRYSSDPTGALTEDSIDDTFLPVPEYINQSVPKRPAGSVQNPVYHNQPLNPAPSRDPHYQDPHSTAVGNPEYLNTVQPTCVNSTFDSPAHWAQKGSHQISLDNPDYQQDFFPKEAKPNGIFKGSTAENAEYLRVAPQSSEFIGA
Description: as §1, §2

[1] = test system: N87 (human gastric cancer cell NCI-N87); test: In vitro proliferation inhibition assay of cell lines (CellTiter-Glo), N87; assay type: cell-based; conditions: N87 cells, 72 hours
Description: (§3) In Vitro Proliferation Inhibition Assay of Cell Lines
(§4) 1. Cell culture and inoculation: on the first day of the experiment, normal cultured cells were taken, and in the exponential growth state, after digestion and dispersion, the cell density was then adjusted to 8.8×10^4 cells/mL for BT-474, and 6.6×10^4 cells/mL for N87, and 90 μL of which were inoculated to each well of a 96-well cell culture plate; after the inoculation was completed, the microplate was cultured under the conditions of 37° C. and 5% CO2 overnight. 2. Dosing to the cells: on the second day of the experiment, the microplate was taken out from the incubator, and 10 μL of 10× compound was added to each well of the microplate, setting 2 duplicate wells for each drug concentration and 9 dosing concentrations for each compound. According to different cell lines, the initial concentration of each compound was different. Upon completion of addition, the microplate was placed under the conditions of 37° C. and 5% CO2 for 72 hours. 3. Data acquisition: the microplate was taken out from the incubator and was allowed to equilibrate at room temperature for 30 minutes. 100 μL of CellTiter-Glo® Luminescent Cell Viability Assay reaction solution which had been equilibrated at room temperature was added to each well, and the reaction solution was shaken at 1300 rpm for 2 minutes at room temperature. After that, the microplate was placed in HERAEUS Multifuge X1R centrifuge, centrifuged at 2000 rpm for 1 minute, and allowed to equilibrate at room temperature for 10 minutes. The fluorescence signal value was measured on EnVision™.

[2] = test system: BT-474 (human breast cancer cell); test: In vitro proliferation inhibition assay of cell lines (CellTiter-Glo), BT-474; assay type: cell-based; conditions: BT-474 cells, 72 hours
Description: as §3
as §4, with “Cell culture and inoculation: on the first day of the experiment, normal cultured cells were taken, and in the exponential growth state, after digestion and dispersion, the cell density was then adjusted to 8.8×10^4 cells/mL for BT-474, and 6.6×10^4 cells/mL for N87, and 90 μL of which were inoculated to each well of a 96-well cell culture plate; after the inoculation was completed, the microplate was cultured under the conditions of 37° C. and 5% CO2 overnight.” left out

CYP3A4 = target: T2, CYP3A4 (Homo sapiens, UniProt P08684); test: Direct inhibition (DI) of CYP3A4 in human liver microsomes; assay type: in vitro ADME; conditions: human liver microsomes 0.2 mg/mL, 10 μM compound
T2 construct: A system of 100 μL human liver microsomes; from tissue; host or cells: human liver microsomes
T2 sequence (P08684 whole entry): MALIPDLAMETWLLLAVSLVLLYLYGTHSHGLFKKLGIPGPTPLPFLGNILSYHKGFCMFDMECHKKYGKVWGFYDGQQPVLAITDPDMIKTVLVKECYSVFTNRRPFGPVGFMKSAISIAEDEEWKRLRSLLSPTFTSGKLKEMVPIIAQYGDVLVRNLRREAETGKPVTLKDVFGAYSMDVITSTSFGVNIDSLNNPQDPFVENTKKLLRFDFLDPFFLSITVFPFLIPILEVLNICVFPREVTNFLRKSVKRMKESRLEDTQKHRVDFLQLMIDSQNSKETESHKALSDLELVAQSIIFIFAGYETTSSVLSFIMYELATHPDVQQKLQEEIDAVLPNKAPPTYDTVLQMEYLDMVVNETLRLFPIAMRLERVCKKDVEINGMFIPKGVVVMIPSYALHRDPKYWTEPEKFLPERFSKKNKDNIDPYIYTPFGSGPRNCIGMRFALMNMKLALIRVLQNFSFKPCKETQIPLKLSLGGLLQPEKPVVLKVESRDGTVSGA
Description: (§5) Study on Direct Inhibition (DI) of CYP3A4, CYP2D6, CYP2C9, CYP2C19, CYP1A2
(§6) A system of 100 μL human liver microsomes (final concentration: 0.2 mg/mL) was used for direct inhibition under warm incubation. The system contained NADPH (final concentration: 1 mM), 10 μM compound, a positive inhibitor cocktail (Ketoconazole 10 μM, Quinidine: 10 μM, Sulfaphenazole: 100 μM, Naphthoflavone: 10 μM, Tranylcypromene 1000 μM), a negative control 10 μM DMSO and mixed probe substrates (Midazolam 10 μM, Testosterone 100 μM, Dextromethophan 10 μM, Diclofenac 20 μM, Phenetin 100 μM, Mephenytoin 100 μM). The reaction was terminated after incubation for 20 minutes. The relative activity of the enzymes was calculated by measuring the relative production of metabolites.

CYP2D6 = target: T3, CYP2D6 (Homo sapiens, UniProt P10635); test: Direct inhibition (DI) of CYP2D6 in human liver microsomes; assay type: in vitro ADME; conditions: probe Dextromethorphan, human liver microsomes 0.2 mg/mL, 10 μM compound, read-out: Direct inhibition (DI) 2D6 (Dextromethorphan)
T3 construct: A system of 100 μL human liver microsomes; from tissue; host or cells: human liver microsomes
T3 sequence (P10635 whole entry): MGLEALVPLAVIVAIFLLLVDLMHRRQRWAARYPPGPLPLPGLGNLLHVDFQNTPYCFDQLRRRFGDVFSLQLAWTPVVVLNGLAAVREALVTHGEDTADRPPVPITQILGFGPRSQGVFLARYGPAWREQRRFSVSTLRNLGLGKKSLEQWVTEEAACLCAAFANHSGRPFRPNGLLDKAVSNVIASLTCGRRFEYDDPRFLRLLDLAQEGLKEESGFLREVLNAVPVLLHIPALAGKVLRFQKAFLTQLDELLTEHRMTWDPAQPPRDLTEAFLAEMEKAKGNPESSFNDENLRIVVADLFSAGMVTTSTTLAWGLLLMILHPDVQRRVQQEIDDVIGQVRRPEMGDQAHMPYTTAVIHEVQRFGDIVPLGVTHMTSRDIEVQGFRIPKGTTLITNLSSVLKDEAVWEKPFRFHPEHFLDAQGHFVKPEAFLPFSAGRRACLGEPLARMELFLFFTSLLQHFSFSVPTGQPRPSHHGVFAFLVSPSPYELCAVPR
Description: as §5, §6

CYP2C9 = target: T4, CYP2C9 (Homo sapiens, UniProt P11712); test: Direct inhibition (DI) of CYP2C9 in human liver microsomes; assay type: in vitro ADME; conditions: probe Diclofenac, human liver microsomes 0.2 mg/mL, 10 μM compound, read-out: Direct inhibition (DI) 2C9 (Diclofenac)
T4 construct: A system of 100 μL human liver microsomes; from tissue; host or cells: human liver microsomes
T4 sequence (P11712 whole entry): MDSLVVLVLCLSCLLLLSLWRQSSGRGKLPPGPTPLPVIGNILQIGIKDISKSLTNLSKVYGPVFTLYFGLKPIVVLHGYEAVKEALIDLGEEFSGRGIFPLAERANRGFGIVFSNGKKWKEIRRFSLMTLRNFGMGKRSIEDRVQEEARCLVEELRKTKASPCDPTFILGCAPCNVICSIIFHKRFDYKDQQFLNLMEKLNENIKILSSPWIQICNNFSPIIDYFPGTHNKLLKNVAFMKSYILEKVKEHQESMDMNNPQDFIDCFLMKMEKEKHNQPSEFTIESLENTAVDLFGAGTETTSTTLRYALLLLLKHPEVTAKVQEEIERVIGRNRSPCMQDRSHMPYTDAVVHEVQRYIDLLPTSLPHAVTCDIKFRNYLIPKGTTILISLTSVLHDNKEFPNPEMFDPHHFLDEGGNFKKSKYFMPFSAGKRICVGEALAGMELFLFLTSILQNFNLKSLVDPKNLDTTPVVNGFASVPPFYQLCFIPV
Description: as §5, §6

CYP1A2 = target: T5, CYP1A2 (Homo sapiens, UniProt P05177); test: Direct inhibition (DI) of CYP1A2 in human liver microsomes; assay type: in vitro ADME; conditions: probe Phenacetin, human liver microsomes 0.2 mg/mL, 10 μM compound, read-out: Direct inhibition (DI) 1A2 (Phenacetin)
T5 construct: A system of 100 μL human liver microsomes; from tissue; host or cells: human liver microsomes
T5 sequence (P05177 1-516): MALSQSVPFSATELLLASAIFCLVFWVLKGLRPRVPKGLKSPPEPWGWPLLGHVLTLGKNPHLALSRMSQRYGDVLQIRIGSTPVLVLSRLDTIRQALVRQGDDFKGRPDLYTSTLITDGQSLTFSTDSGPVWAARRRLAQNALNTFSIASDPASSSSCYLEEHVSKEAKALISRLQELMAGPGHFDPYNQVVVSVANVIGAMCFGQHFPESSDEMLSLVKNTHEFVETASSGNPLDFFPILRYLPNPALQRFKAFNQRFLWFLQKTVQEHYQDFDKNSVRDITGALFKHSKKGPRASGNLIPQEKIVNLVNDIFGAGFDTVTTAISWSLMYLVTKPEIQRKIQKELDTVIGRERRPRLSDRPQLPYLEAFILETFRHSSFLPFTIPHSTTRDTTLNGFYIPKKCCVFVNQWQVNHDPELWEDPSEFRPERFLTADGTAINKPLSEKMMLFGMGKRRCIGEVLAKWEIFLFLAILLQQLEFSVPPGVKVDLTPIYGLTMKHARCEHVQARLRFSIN
Description: as §5, §6

CYP2C19 = target: T6, CYP2C19 (Homo sapiens, UniProt P33261); test: Direct inhibition (DI) of CYP2C19 in human liver microsomes; assay type: in vitro ADME; conditions: probe Mephenytoin, human liver microsomes 0.2 mg/mL, 10 μM compound, read-out: Direct inhibition (DI) 2C19 (Mephenytoin)
T6 construct: A system of 100 μL human liver microsomes; from tissue; host or cells: human liver microsomes
T6 sequence (P33261 whole entry): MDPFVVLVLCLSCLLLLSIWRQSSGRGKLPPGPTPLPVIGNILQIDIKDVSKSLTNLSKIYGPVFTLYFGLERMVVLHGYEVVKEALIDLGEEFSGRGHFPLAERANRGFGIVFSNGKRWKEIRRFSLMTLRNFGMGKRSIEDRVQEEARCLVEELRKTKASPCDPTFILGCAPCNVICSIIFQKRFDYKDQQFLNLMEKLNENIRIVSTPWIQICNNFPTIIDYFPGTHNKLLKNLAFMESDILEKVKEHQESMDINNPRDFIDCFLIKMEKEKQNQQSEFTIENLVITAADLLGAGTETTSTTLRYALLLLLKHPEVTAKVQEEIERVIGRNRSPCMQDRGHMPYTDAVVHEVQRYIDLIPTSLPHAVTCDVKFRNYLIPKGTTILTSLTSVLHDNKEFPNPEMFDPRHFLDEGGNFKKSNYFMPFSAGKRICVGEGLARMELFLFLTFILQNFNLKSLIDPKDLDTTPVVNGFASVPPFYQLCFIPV
Description: as §5, §6

[3] = probe Midazolam, read-out: Direct inhibition (DI) 3A4 (Midazolam)
[4] = probe Testosterone, read-out: Direct inhibition (DI) 3A4 (testosterone)

T1 sequence (P04626 23-1255): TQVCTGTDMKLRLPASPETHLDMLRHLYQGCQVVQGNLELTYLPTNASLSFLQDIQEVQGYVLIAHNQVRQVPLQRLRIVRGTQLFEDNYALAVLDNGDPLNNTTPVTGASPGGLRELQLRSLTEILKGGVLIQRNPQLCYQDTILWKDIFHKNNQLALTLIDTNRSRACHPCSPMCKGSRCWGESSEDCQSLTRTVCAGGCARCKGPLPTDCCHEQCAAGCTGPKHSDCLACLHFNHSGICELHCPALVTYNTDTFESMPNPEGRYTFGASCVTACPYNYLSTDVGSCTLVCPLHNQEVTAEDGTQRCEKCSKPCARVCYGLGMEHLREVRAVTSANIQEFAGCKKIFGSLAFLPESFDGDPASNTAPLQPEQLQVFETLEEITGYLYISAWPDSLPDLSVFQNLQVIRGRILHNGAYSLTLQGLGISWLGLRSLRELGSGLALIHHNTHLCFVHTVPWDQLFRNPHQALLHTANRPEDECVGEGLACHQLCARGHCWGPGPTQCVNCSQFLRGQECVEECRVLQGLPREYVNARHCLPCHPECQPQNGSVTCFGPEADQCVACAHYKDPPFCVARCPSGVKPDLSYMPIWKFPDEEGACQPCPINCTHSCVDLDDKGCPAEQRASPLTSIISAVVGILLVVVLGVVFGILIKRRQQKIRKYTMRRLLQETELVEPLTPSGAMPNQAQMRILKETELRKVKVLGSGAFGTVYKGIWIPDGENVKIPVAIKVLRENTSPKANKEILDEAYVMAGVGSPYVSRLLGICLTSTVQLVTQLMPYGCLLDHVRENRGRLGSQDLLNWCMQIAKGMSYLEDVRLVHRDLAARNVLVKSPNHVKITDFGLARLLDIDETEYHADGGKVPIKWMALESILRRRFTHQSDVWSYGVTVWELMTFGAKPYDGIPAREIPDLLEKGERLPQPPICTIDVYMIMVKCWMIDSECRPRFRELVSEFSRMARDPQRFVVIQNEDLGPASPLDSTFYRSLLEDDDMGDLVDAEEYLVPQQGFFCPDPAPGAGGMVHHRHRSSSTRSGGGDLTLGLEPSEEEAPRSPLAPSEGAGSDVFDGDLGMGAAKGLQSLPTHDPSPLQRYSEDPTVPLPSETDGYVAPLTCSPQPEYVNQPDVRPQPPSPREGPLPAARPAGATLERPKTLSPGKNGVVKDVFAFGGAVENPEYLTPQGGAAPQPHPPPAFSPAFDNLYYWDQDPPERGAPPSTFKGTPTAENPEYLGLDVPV

IC50 (ErbB2 kinase) [nM] | IC50 (EGFR kinase) [nM] | IC50 [1] [nM] | IC50 [2] [nM] | inhibition at 20 min, 10 µM (CYP3A4; [3]) [%] | inhibition at 20 min, 10 µM (CYP3A4; [4]) [%] | inhibition at 20 min, 10 µM (CYP2D6) [%] | inhibition at 20 min, 10 µM (CYP2C9) [%] | inhibition at 20 min, 10 µM (CYP1A2) [%] | inhibition at 20 min, 10 µM (CYP2C19) [%] | SMILES
7.56 | 1.62 | 5.43 | 4.2 | < 0 | 18 | 13 | 1 | < 0 | 10 | Cc1cc(Nc2c(C#N)cnc3ccc(NC(=O)/C=C/[C@H]4CCCN4C)cc23)ccc1Oc1cc2nncn2cn1 [Final product of Embodiment 23, (R,E)-N-(4-((4-([1,2,4]triazolo[4,3-c]pyrimidin-7-yloxy)-3-methylphenyl)amino)-3-cyanoquinolin-6-yl)-3-(1-methylpyrrolidin-2-yl)acrylamide]
2.4 | 32.6 | 1.2 | 2 | < 0 | 13 | 36 | 11 | 12 | 27 | CCOc1cc2ncnc(Nc3ccc(Oc4ccn5ncnc5c4)c(C)c3)c2cc1NC(=O)/C(F)=C\[C@H]1CCCN1C [Final product of Embodiment 44]
0.6 | 0.6 | 8.5 | 3.9 | < 0 | 6 | 71 | < 0 | < 0 | 1 | Cc1cc(Nc2ncnc3ccc(NC(=O)/C=C/[C@H]4CCCN4C)cc23)ccc1Oc1cc2nccn2cn1 [Final product of Embodiment 41]
0.488 | 0.251 | 4.97 | 5.31 | 17 | 34 | 4 | 8 | 3 | 9 | CCOc1cc2ncnc(Nc3ccc(Oc4cc5nncn5cn4)c(C)c3)c2cc1NC(=O)/C=C/[C@H]1CCCN1 [Final product of Embodiment 17, (R,E)-N-(4-((4-([1,2,4]triazolo[4,3-c]pyrimidin-7-yloxy)-3-methylphenyl)amino)-7-ethoxyquinazolin-6-yl)-3-(pyrrolidin-2-yl)acrylamide]
3.56 | 2.14 | 3.2 | 4.2 | 10 | 17 | 3 | 17 | < 0 | 49 | CCOc1cc2ncc(C#N)c(Nc3ccc(Oc4cc5nncn5cn4)c(C)c3)c2cc1NC(=O)/C=C/[C@H]1CCCN1C [Final product of Embodiment 33]
0.83 | 2.52 | 3.55 | 5.23 | < 0 | 5 | 85 | 19 | 2 | 28 | CN1CCC[C@@H]1/C=C/C(=O)Nc1ccc2ncnc(Nc3ccc(Oc4ccn5ncnc5c4)c(Cl)c3)c2c1 [Final product of Embodiment 26, (R,E)-N-(4-((4-([1,2,4]triazolo[1,5-a]pyridin-7-yloxy)-3-chlorophenyl)amino)quinazolin-6-yl)-3-(1-methylpyrrolidin-2-yl)acrylamide]
0.73 | 1.02 | 3.18 | 3.27 | 5 | 16 | 87 | 9 | 9 | 26 | Cc1cc(Nc2ncnc3ccc(NC(=O)/C=C/[C@H]4CCCN4C)cc23)ccc1Oc1ccn2ccnc2c1 [Final product of Embodiment 11, (R,E)-N-(4-((4-(imidazo[1,2-a]pyridin-7-yloxy)-3-methylphenyl)amino)quinazolin-6-yl)-3-(1-methylpyrrolidin-2-yl)acrylamide]
– | – | – | – | 3 | 9 | 16 | < 0 | < 0 | 18 | Cc1cc(Nc2ncnc3ccc(NC(=O)/C(F)=C\[C@H]4CCCN4C)cc23)ccc1Oc1ccn2ncnc2c1 [Final product of Embodiment 40]

Source: patent US11578074B2, “Nitrogenous heterocyclic compound, preparation method, intermediate, composition, and application” (SHANGHAI PHARMACEUTICALS HOLDING CO., LTD., priority 2017, dated 2023)
